Experiments:
[1] = tested on: mice with asthma induced by ovalbumin; test: Inflammation in lung of mice with asthma induced by ovalbumin (microphotographs, Examples 2 and 4); type: in vivo, mice (C57BL/6); conditions: intraperitoneal injection twice
Method: At first, in order to prepare animal models of asthma, 200 μl of ovalbumin solution (ovalbumin 200 μg and alumina gel 1000 μg were dissolved in physiological saline) was injected in each abdominal cavity of twenty 10-week old female mice (C57BL/6, Damul Science, Daejeon, Korea). Two weeks later, 200 μl of ovalbumin solution(2% w/v) was sprayed on each mouse to sensitize it. 200 μl of 1% ovalbumin solution was sprayed again on the 21st, the 22nd and the 23rd day, and 10% ovalbumin solution was sprayed again on the 25th day to sensitize.
The above mice with asthma induced by sensitizing with 10% ovalbumin were divided into two groups; one was used as a negative control group treated with nothing and the other was treated with 10 mg/kg of black rice extract. Black rice extract was administered by intraperitoneal injection and the injection was performed twice on the 24th and the 25th day from the treatment of ovalbumin.
48 hours after the treatment of black rice extract, mice were sacrificed using ether. Inflammation in lung of each mouse was investigated. […] Therefore, it was confirmed that black rice extract could inhibit asthma effectively. […]

[2] = tested on: mice with asthma induced by ovalbumin; test: Accumulation of eosinophiles in airway (BALF cell count) of mice with asthma induced by ovalbumin (Example 3); type: in vivo, mice (C57BL/6); conditions: FIG. 2; for percentage of eosinophiles in airway: intraperitoneal injection twice, ovalbumin-exposed mice 58%
Method: At first, in order to prepare animal models of asthma, 200 μl of ovalbumin solution (ovalbumin 200 μg and alumina gel 1000 μg were dissolved in physiological saline) was injected in each abdominal cavity of twenty 10-week old female mice (C57BL/6, Damul Science, Daejeon, Korea). Two weeks later, 200 μl of ovalbumin solution(2% w/v) was sprayed on each mouse to sensitize it. 200 μl of 1% ovalbumin solution was sprayed again on the 21st, the 22nd and the 23rd day, and 10% ovalbumin solution was sprayed again on the 25th day to sensitize. […] Each compound was administered by intraperitoneal injection and the injection was performed twice on the 24th and the 25th day from the treatment of ovalbumin. On the second day from the treatment, each mouse was sacrificed using ether. Then, a microtube was connected to trachea. PBS (phosphate-buffered saline, 0.8 ml) was injected and recovered through the microtube, which was repeated twice, resulting in the obtainment of bronchoalveolar lavage fluid (BALF). The fluid was centrifuged to separate cells in airway lumen and various proteins secreted from the cells and lung. The separated cells were fixed on a slide using cytospin and stained with Diff-Quick staining solution. Photographs were taken by a digital camera attached on Carzeiss microscope (model: […]). 5 random regions per each sample were picked to count eosinophiles, and the percentage of eosinophiles in each sample was shown in FIG. 2.

[3] = tested on: mice with asthma induced by ovalbumin; test: Inflammation in lung of mice with asthma induced by ovalbumin (microphotographs, Example 5); type: in vivo, mice (Balb/c); conditions: 1.5 mg/kg and 4.5 mg/kg orally once a day; FIG. 4C and 4D
Method: (§1) In order to prepare animal models with asthma, 0.5 ml of ovalbumin solution (500 μg of ovalbumin and 10 mg of alumina gel were dissolved in 1 ml of PBS) was injected into abdominal cavities of twenty 5-week old female mice(Balb/c, Orient, Seoul) on first and 10th experiment day. The ovalbumin solution was sprayed on each mouse on the 21st, the 22nd and the 23rd day to induce asthma.
(§2) Mice (n=15) with asthma induced by ovalbumin were divided into three groups; one was used as a negative control treated with nothing and two other groups were used as experimental groups each treated with cyanidin glycoside by 1.5 mg/kg and 4.5 mg/kg, respectively. Cyanidin glycoside was orally administered once a day in succession from the 2nd day to the 23rd day.
Precisely, as cyanidin glycoside concentration increased, the percentage of eosinophiles in airway decreased to 49% and 38% each; compared with a negative control. […] Inflammation in lung cells of the sacrificed mice was also investigated and the result was represented in FIG. 4.

[4] = tested on: mice with asthma induced by ovalbumin; test: Accumulation of eosinophiles in airway (BALF cell count) of mice with asthma induced by ovalbumin (Example 5); type: in vivo, mice (Balb/c); conditions: 2nd to 23rd day, negative control 62.7 ± 4.3, n=5
Method: as §1, §2
24 hours after final sensitization, each mouse was sacrificed using ether and a microtube was connected into trachea. 0.8 ml of PBS was injected and recovered through the microtube, which was repeated twice. The obtained bronchoalveolar lavage fluid (BALF) was centrifuged to separate cells in airway lumen and various proteins secreted from the cells and lung.
The separated cells were fixed on a slide using cytospin and stained with Diff-Quick staining solution. Photographs were taken by a digital camera attached on Carzeiss microscope (model: AXIOVERT 25-CEL). 5 random regions per each sample were picked to count eosinophiles, and the percentage of eosinophiles in each sample was represented in Table 1.

| SMILES | inflammation-inhibiting effect ([1]; 0.5 mg/kg, data not shown) | inflammation in bronchi ([1]; 1.25 mg/kg, 48 hours after treatment, FIG. 3) | accumulation of eosinophiles in airway ([2]; 0.5 mg/kg and 1.25 mg/kg, intraperitoneal injection) | percentage of eosinophiles in airway ([2]; 0.5 mg/kg) [%] | percentage of eosinophiles in airway ([2]; 1.25 mg/kg) [%] | inflammation in bronchi [3] | Percentage of eosinophiles ([4]; 1.5 mg/kg orally once a day) [%] | Percentage of eosinophiles ([4]; 1.5 mg/kg orally once a day, listed as cyanidin glycoside) [%] | Percentage of eosinophiles ([4]; 4.5 mg/kg orally once a day) [%] | Percentage of eosinophiles ([4]; 4.5 mg/kg orally once a day, listed as cyanidin glycoside) [%] |
| --- | --- | --- | --- | --- | --- | --- | --- | --- | --- | --- |
| Oc1ccc(-c2[o+]c3cc(O)cc(O)c3cc2O)cc1.[Cl-] [pelargonidin, 3,5,7-trihydroxy-2-(4-hydroxyphenyl)-1-benzopyrylium chloride] | outstanding | remarkably reduced | inhibited | 30 | 20 | – | – | – | – | – |
| OC[C@H]1O[C@@H](Oc2cc3c(O)cc(O)cc3[o+]c2-c2ccc(O)c(O)c2)[C@H](O)[C@@H](O)[C@@H]1O [Cyanidin glycoside, cyanidin 3-O-β-glucopyranoside] | – | – | – | – | – | remarkably reduced | 49.5 ± 5.8 | 49 | 38.2 ± 6.2 | 38 |

Source: patent US20060147564A1, “Composition for preventing or treating allergic disease using black rice extract and its therapeutic use” (CELLMICS CO. LTD, priority 2003, published 2006)
